Each structure is given as a SMILES string. Entries after “also recorded” stand apart in the source; their conditions may differ.

From paper PMC4245125, “Pharmacological and Behavioral Characterization of D-473, an Orally Active Triple Reuptake Inhibitor Targeting Dopamine, Serotonin and Norepinephrine Transporters” (PLoS ONE, 2014) come the findings set out here.

Experiment [1] deals with T1, D4 (Homo sapiens, UniProt P21917).
T1 construct: purchased NIMH PDSP
As to the kind of experiment: NIMH PDSP receptor binding, D4. The conditions noted are these: [3H]N-methylspiperone, read-out: % Inhibition of Binding at 10 µM D-473.

In experiment [2] the target is T2, M5 (Homo sapiens, UniProt P08912).
T2 construct: purchased NIMH PDSP
The experiment in a line: biochemical. The conditions noted are these: read-out: % Inhibition of Binding at 10 µM D-473.

Experiment [3] deals with T3, 5HT2a (Homo sapiens, UniProt P28223).
T3 construct: purchased NIMH PDSP
The experiment in a line: NIMH PDSP receptor binding, 5HT2a. As to conditions: [3H]ketanserin, read-out: % Inhibition of Binding at 10 µM D-473.

For experiment [4], the target named is T4, 5HT3 (Homo sapiens, UniProt P46098).
T4 construct: purchased NIMH PDSP
The experiment in a line: NIMH PDSP receptor binding, 5HT3. The conditions noted are these: [3H] LY 278,584, read-out: % Inhibition of Binding at 10 µM D-473.

Experiment [5] deals with duration of immobility. As to the kind of experiment: Forced swim test in rats after oral administration. Type of experiment: in vivo. The conditions noted are these: rat, sub-chronic. The procedure:
The experiment was carried out in the same way as described in our previous publications according to the Porsolt protocol, [30]. The subjects were male Sprague Dawley rats (Harlam Sprague Dawley Inc., Indianapolis, Ind., USA) weighing 200–225 g housed in cages for at least 1 week prior to testing. Animals were maintained in a temperature-controlled environment under a 12 hr light-dark cycle. All subjects were naive and were used only once. Rats were transported to the testing room at least for one hour prior to testing for acclimatization and adaptation purposes. Experimental sessions were conducted between 9 AM to 2 PM daily. Animals were assigned randomly and were placed individually in a glass cylinder (24.5 cm×35.5 cm) filled with water at room temperature to a depth of 22 cm. All the test sessions were recorded by video cameras. The water was changed in the beginning of each session and the temperature was maintained constant at 24–25°C. Rats were judged to be immobile if they made only minimal movement, barely keeping afloat. The test procedure consisted of a pretest and test session separated by 24 h. During the pretest period, rats were placed in the swim chamber for 15 min. Followed by the initial swim exposure; rats were patted dry and were transferred to the individual cages. Drugs or vehicle were then orally administered (p.o) 15 min after the initial swim exposure and were then transported to their home cages. On the following day the rats were brought back to the testing room at least 1 h before the beginning of test session. Rats were administered either drugs or vehicle 1 h before the swim test. Each rat underwent a 5-min swim session, which was videotaped and scored later. In the case of imipramine, pretreatment time was 30 min. Drug solutions were prepared freshly on the test days. Compound D-473 was dissolved in 3% beta-hydroxy propyl cyclodextrin solution. All drug and vehicle preparations were administered orally. D-473 was administered at a dose of 5, 10, 25 and 50 mg/kg and the volume was maintained at 1.2 mL/rat. Drug or vehicle was administered 1 h prior to testing for forced swimming. An individual, blinded to the treatment, scored the videotapes for immobility. Immobility scores were analyzed by one way ANOVA test. Behavioral results were analyzed with Prism 6.0 (GraphPad Software, San Diego, CA). The immobility time for forced swimming test was analyzed by one-way ANOVA (analysis of variance) followed by post Dunnett’s multiple comparison test vs. vehicle. Data for vehicle was used as negative control, respectively. Statistical significance was assumed in analysis if p≤0.05.

T2 sequence (P08912 whole entry): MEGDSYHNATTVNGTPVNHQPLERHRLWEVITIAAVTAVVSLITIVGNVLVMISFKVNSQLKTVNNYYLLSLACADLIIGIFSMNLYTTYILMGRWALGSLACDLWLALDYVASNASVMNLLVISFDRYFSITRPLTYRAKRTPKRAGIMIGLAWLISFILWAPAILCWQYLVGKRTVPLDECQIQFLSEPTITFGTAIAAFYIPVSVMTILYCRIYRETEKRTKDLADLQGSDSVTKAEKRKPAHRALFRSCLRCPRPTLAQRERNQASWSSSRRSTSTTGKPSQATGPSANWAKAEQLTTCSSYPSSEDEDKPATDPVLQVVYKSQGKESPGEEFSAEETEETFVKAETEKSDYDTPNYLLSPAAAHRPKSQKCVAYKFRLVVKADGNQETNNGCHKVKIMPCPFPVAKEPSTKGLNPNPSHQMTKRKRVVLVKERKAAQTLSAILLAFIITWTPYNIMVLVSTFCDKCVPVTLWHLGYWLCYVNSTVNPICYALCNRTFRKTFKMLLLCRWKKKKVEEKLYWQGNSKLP
T1 sequence (P21917 whole entry): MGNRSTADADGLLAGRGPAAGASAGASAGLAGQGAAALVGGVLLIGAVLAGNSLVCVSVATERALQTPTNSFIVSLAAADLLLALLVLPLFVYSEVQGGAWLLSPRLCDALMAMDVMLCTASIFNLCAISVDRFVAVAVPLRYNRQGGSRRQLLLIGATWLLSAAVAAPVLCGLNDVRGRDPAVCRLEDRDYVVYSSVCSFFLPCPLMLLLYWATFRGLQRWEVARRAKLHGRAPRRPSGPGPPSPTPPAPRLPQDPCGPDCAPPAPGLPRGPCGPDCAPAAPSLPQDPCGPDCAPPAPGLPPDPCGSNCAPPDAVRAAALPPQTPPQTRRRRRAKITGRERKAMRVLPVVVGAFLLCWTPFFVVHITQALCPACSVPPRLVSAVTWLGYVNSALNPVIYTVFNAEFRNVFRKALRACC
T4 sequence (P46098 24-478): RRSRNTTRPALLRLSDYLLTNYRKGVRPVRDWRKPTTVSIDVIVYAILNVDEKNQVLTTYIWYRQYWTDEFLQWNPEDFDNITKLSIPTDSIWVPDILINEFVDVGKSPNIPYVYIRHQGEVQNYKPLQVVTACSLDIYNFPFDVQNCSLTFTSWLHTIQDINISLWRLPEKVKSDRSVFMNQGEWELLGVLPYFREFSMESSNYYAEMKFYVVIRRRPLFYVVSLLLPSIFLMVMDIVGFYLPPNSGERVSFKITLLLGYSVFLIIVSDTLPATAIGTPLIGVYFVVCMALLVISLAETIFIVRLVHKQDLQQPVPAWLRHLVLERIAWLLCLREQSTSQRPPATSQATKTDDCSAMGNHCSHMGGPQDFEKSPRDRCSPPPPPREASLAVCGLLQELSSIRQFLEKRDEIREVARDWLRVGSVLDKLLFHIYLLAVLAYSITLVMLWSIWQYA
T3 sequence (P28223 whole entry): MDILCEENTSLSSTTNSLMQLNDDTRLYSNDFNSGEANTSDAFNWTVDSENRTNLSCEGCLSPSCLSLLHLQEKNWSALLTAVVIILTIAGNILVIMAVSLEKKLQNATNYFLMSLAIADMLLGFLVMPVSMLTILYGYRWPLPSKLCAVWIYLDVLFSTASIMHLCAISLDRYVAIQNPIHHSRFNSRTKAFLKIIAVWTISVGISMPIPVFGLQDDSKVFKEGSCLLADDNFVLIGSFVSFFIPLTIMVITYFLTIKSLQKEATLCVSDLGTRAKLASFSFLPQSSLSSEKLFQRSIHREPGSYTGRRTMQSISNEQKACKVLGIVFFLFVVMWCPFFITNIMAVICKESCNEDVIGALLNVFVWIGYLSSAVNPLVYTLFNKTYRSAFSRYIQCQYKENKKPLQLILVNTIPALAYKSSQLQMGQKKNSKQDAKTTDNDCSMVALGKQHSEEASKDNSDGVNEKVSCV

Take `COc1ccc(CN[C@@H]2CO[C@H](C(c3ccc(F)cc3)c3ccc(F)cc3)C[C@H]2O)cc1` [Compound D-473, (2S,4R,5R)-2-(bis(4-fluorophenyl)methyl)-5-((4-methoxybenzyl)amino)tetrahydro-2H-pyran-4-ol]: the inhibition (usually the share of the control response that was lost under treatment) at 10 µM in experiment [1] stood at 37.2%; in experiment [2] it was 3.2%; in experiment [3], 16.3%; in experiment [4] it was 3.5%. For the same compound, the “Duration of immobility in the forced swimming test” value in experiment [5] (5 mg/kg p.o., vs vehicle) was “did not produce significant reduction in immobility”; in experiment [5] (10 mg/kg p.o., vs vehicle (P<0.01), 10 mg/kg), “robust, statistically significant effect; also recorded: statistically significant different compared to vehicle”; in experiment [5] (25 mg/kg p.o., vs vehicle (P<0.01)), “statistically significant different compared to vehicle”; in experiment [5] (50 mg/kg p.o., vs vehicle (P<0.01)), “statistically significant different compared to vehicle”.
